Values quoted from earlier work as cited in patent US12599131B2, “Disinfectant composition” (KAO CORPORATION, priority 2020, dated 2026).

details: 0.1 mol/L in water, Handbook of Chemistry or Chemicalize

Compound	pKa (25° C.)
CCCCCCCCC(CCCCCCCC)C(=O)O [2-octyldecanoic acid]	4.98
CCCCCCCCCC(=O)O [capric acid]	4.95
O=C(O)CCCCC(=O)O [adipic acid]	4.3
O=CO [formic acid]	3.54
CCCCCC(=O)O [caproic acid]	4.6
CCCCCCCCC(CCCCCC)C(=O)O (stereo not drawn) [2-hexyldecanoic acid]	5.12
